From the supplement of paper PMC11451515

How the values were obtained:
Assay in all cases: AUC of viability dose-response curve (% viability x log10 dose units); higher = less sensitive
Details in all cases: 48 h
NOMO1 = tested on: NOMO1
How it was run: (§1)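 Area under the curve was integrated by trapezoidal rule from a log-logistic fit of normalised viability, with curves exceeding full viability scaled and quality-control failures removed. The fit had four parameters over log10 doses. Viability came from CellTiter-Glo One luminescence, normalised per plate to DMSO and cell-free wells, after leukemia cells adapted to each medium (500 or 1000 cells/well, 1536-well plates) were exposed to library compounds in DMSO for 48 h at 37°C. The 11 threefold doses ran from 47 μM to 0.79 nM.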

P12-Ichikawa = tested on: P12-Ichikawa
How it was run: as §1

SEM cells = tested on: SEM cells
How it was run: as §1

[1] = RPMI 5 mM glucose + 10% dialyzed FBS

| Structure (SMILES) | AUC of viability dose-response curve (NOMO1; HPLM + 10% dialyzed FBS) | AUC of viability dose-response curve (NOMO1; RPMI 5 mM glucose + 10% FBS) | AUC of viability dose-response curve (NOMO1; [1]) | AUC of viability dose-response curve (P12-Ichikawa; HPLM + 10% dialyzed FBS) | AUC of viability dose-response curve (P12-Ichikawa; RPMI 5 mM glucose + 10% FBS) | AUC of viability dose-response curve (P12-Ichikawa; [1]) | AUC of viability dose-response curve (SEM cells; HPLM + 10% dialyzed FBS) | AUC of viability dose-response curve (SEM cells; RPMI 5 mM glucose + 10% FBS) | AUC of viability dose-response curve (SEM cells; [1]) |
| --- | --- | --- | --- | --- | --- | --- | --- | --- | --- |
| N[C@@H](C(=O)N[C@H]1[C@H]2SC\C(=C(/N2C1=O)C(O)=O)Cl)C3=CC=CC=C3 | 462 | 430 | 441 | 462 | 457 | 466 | 436 | 465 | 468 |
| NC(=O)c1ccc(-c2nc(-c3ccc4c(c3)OCCO4)c(-c3ccccn3)[nH]2)cc1 | 449 | 460 | 473 | 470 | 459 | 473 | 451 | 462 | 416 |
| CN(C)Cc1ccc(-c2nc3cccc4c3n2CCNC4=O)cc1 | 464 | 458 | 452 | 461 | 463 | 466 | 455 | 459 | 462 |
| O=C1\C=C(/OC2=C1C=CC=C2C3=CC=CC=C3)N4CCOCC4 | 410 | 392 | 390 | 432 | 393 | 397 |  |  |  |
| COc1cc2c(N3CCN(C(=O)Nc4ccc(OC(C)C)cc4)CC3)ncnc2cc1OCCCN1CCCCC1 | 395 | 357 | 371 | 406 | 360 | 369 |  |  |  |
| CC(C)C[C@H](CN)CC(=O)O | 460 | 445 | 458 | 450 | 458 | 455 | 449 | 452 | 451 |
| COc1cc2nccc(Oc3ccc(NC(=O)Nc4ccc(F)cc4F)c(F)c3)c2cc1OC | 413 | 414 | 429 | 419 | 401 | 395 |  |  |  |
| Cc1ccc(NC(=O)c2ccc(CN3CCN(C)CC3)cc2)cc1Nc1nccc(-c2cccnc2)n1 | 477 | 459 | 454 | 460 | 470 | 477 | 465 | 468 | 467 |
| C[C@@H]1CC[C@@]2(OC1)O[C@H]3C[C@H]4[C@@H]5C/C=C6/C[C@H](CC[C@]6(C)[C@H]5CC[C@]4(C)[C@H]3[C@@H]2C)O[C@@H]7O[C@H](CO)[C@@H](O[C@@H]8O[C@@H](C)[C@H](O)[C@@H](O)[C@H]8O)[C@H](O)[C@H]7O[C@@H]9O[C@@H](C)[C@H](O)[C@@H](O)[C@H]9O | 452 | 453 | 449 | 450 | 452 | 445 | 440 | 431 | 429 |
| O=C1NC(=O)[C@@H](c2cn3c4c(cccc24)CCC3)[C@@H]1c1c[nH]c2ccccc12 | 367 | 363 | 379 | 358 | 344 | 380 | 345 | 317 | 348 |
| C=C(C)[C@@H]1CC[C@]2(C)CC[C@]3(C)[C@H](CC[C@@H]4[C@@]5(C)CC[C@H](O)C(C)(C)[C@@H]5CC[C@]43C)[C@@H]12 | 444 | 466 | 446 | 458 | 467 | 459 |  |  |  |
| Clc1cccc(-c2nnnn2Cc2cccnc2)c1Cl | 362 | 365 | 357 | 397 | 385 | 382 | 359 | 348 | 375 |
| CNC(=O)[C@H](Cc1ccccc1)NC(=O)[C@H](CC(C)C)[C@H](CSc1cccs1)C(=O)NO | 433 | 402 | 415 | 409 | 373 | 386 | 405 | 389 | 340 |
| CC(C)(C)/[N+]([O-])=C/c1ccc([S+](=O)([O-])[O][Na])cc1[S+](=O)([O-])[O][Na] | 451 | 445 | 459 | 461 | 451 | 469 | 438 | 461 | 453 |
| COc1cc2nccc(Oc3ccc(NC(=O)C4(C(=O)Nc5ccc(F)cc5)CC4)cc3)c2cc1OC | 433 | 457 | 442 | 436 | 440 | 427 |  |  |  |
| Cc1nc(Nc2ncc(C(=O)Nc3c(C)cccc3Cl)s2)cc(N2CCN(CCO)CC2)n1 | 448 | 461 | 447 | 358 | 396 | 398 |  |  |  |
| Cc1c[nH]c(/C=C2\C(=O)Nc3ccccc32)c1CCC(=O)O | 399 | 440 | 428 | 436 | 413 | 390 |  |  |  |
| CN1CCCN(C(=O)c2cccc(-c3ccc(/C=C4/C(=O)Nc5ccc(Cl)cc54)o3)c2)CC1 | 399 | 446 | 436 | 419 | 372 | 396 | 362 | 324 | 332 |
| COc1cc2nccc(Oc3ccc(NC(=O)Nc4cc(C)on4)c(Cl)c3)c2cc1OC | 471 | 449 | 467 | 458 | 453 | 455 |  |  |  |
| O=C(Cc1cccc(OC(F)(F)F)c1)Nc1ccc(CCCCc2nnc(NC(=O)Cc3ccccn3)s2)nn1 | 407 | 388 | 394 | 426 | 386 | 387 | 381 | 276 | 277 |
| NC1CCC(N[C@@H]2C[C@H]2c2ccccc2)CC1 (some centres not stated) | 450 | 456 | 450 | 463 | 461 | 467 | 409 | 444 | 441 |
| CO[C@H]1C[C@@H]2CC[C@@H](C)[C@@](O)(O2)C(=O)C(=O)N2CCCC[C@H]2C(=O)O[C@H]([C@H](C)C[C@@H]2CC[C@@H](OP(C)(C)=O)[C@H](OC)C2)CC(=O)[C@H](C)/C=C(\C)[C@@H](O)[C@@H](OC)C(=O)[C@H](C)C[C@H](C)/C=C/C=C/C=C/1C | 452 | 462 | 476 | 453 | 411 | 414 | 382 | 360 | 380 |

| Structure (SMILES) | AUC of viability dose-response curve (NOMO1; HPLM + 10% dialyzed FBS) | AUC of viability dose-response curve (NOMO1; RPMI 5 mM glucose + 10% FBS) | AUC of viability dose-response curve (NOMO1; [1]) | AUC of viability dose-response curve (P12-Ichikawa; HPLM + 10% dialyzed FBS) | AUC of viability dose-response curve (P12-Ichikawa; RPMI 5 mM glucose + 10% FBS) | AUC of viability dose-response curve (P12-Ichikawa; [1]) | AUC of viability dose-response curve (SEM cells; HPLM + 10% dialyzed FBS) | AUC of viability dose-response curve (SEM cells; RPMI 5 mM glucose + 10% FBS) | AUC of viability dose-response curve (SEM cells; [1]) |
| --- | --- | --- | --- | --- | --- | --- | --- | --- | --- |
| Nc1ccccc1NC(=O)c1ccc(CNc2nccc(-c3cccnc3)n2)cc1 | 351 | 364 | 353 | 355 | 349 | 352 | 312 | 306 | 304 |
| CN1C(=O)\C(=C/C(=C1/NC2=C(F)C=C(I)C=C2)C(=O)NOCCO)C | 257 | 281 | 253 | 441 | 423 | 451 | 398 | 403 | 342 |
| CN(C)CCOC(c1ccccc1)c1ccccc1 | 470 | 459 | 467 | 471 | 473 | 469 | 460 | 473 | 452 |
| O=C(Nc1ccc(OC(F)(F)F)cc1)c1sccc1NCc1ccnc2ccccc12 | 346 | 388 | 395 | 295 | 351 | 363 | 373 | 359 | 395 |
| Cc1cc(O)c2c3c4c(cc(O)c13)C(C)(C)C(=O)c1c(O)cc(O)c(c1-4)C2=O | 450 | 451 | 462 | 460 | 457 | 454 | 457 | 465 | 450 |
| CC[C@H]1OC(=O)[C@H](C)[C@@H](O[C@H]2C[C@@](C)(OC)[C@@H](O)[C@H](C)O2)[C@H](C)[C@@H](O[C@@H]2O[C@@H](C)C[C@H](N(C)C)[C@H]2O)[C@](C)(O)C[C@@H](C)C(=O)[C@H](C)[C@@H](O)[C@]1(C)O | 423 | 403 | 429 | 402 | 402 | 411 | 401 | 418 | 400 |
| O=C1c2c(O)cccc2[C@H]([C@@H]2O[C@H](CO)[C@@H](O)[C@H](O)[C@H]2O)c2cc(CO)cc(O)c21 | 455 | 404 | 431 | 467 | 467 | 465 | 449 | 431 | 441 |
| O=C1Nc2ccccc2/C1=C1\Nc2ccccc2C1=O | 448 | 447 | 442 | 459 | 467 | 471 |  |  |  |
| Fc1ccc(C(c2ccc(F)cc2)N2CCN(C/C=C/c3ccccc3)CC2)cc1 | 432 | 467 | 457 | 456 | 462 | 447 | 404 | 392 | 424 |
| O=C(NC1CCOCC1)c1ccc(-c2cc(-c3c[nH]nc3-c3ccccn3)ccn2)cc1 | 458 | 465 | 466 | 463 | 448 | 435 | 464 | 474 | 453 |
| CCC1=C[C@@H]2CN(C1)Cc1c([nH]c3ccccc13)[C@@](C(=O)OC)(c1cc3c(cc1OC)N(C)[C@H]1[C@@](O)(C(=O)OC)[C@H](OC(C)=O)[C@]4(CC)C=CCN5CC[C@]31[C@@H]54)C2 | 256 | 259 | 260 | 202 | 182 | 238 | 244 | 187 | 241 |
| CCC(=O)O[C@@]1([C@@H](C)C[C@H]2[C@@H]3CCC/4=C/C(=O)/C=C\[C@]4(C)[C@@]3(F)[C@@H](O)C[C@]12C)C(=O)CCl | 411 | 467 | 429 | 325 | 254 | 251 | 339 | 336 | 308 |
| CNC(=O)c1cccc(-c2ccc3c(N4CCOC[C@@H]4C)nc(N4CCOC[C@@H]4C)nc3n2)c1 | 343 | 376 | 323 | 370 | 316 | 322 | 305 | 333 | 305 |
| CCOC(=O)C/1=C(C)/NC(=S)NC1C2=CC=CC(=C2)O (configuration not stated) | 286 | 272 | 300 | 251 | 246 | 281 | 242 | 242 | 263 |
| Cc1ccc(C(C)(O)c2nc3ccccc3s2)c(C)c1 (configuration not stated) | 427 | 433 | 457 | 412 | 415 | 426 | 386 | 387 | 386 |
| ClC1=CC=C(CCCOC/2=N/NC(=O)C(=C2NCC3=CN=CC=C3)/Br)C=C1 | 344 | 390 | 392 | 387 | 430 | 382 | 323 | 358 | 391 |
| O=C(O)c1ccccc1C(=O)Nc1ccc(-c2ccccc2)cc1 | 462 | 463 | 460 | 468 | 461 | 469 | 449 | 457 | 456 |
| Cc1[nH]c(/C=C2\C(=O)Nc3ccc([S+](=O)([O-])N(C)c4cccc(Cl)c4)cc32)c(C)c1C(=O)N1CCN(C)CC1 | 451 | 462 | 456 | 436 | 430 | 432 | 393 | 379 | 368 |
| Fc1cc(-c2cccc3ncc(-c4cnn(C5CCNCC5)c4)nc23)cc(F)c1CN1CCOCC1 | 378 | 409 | 412 | 407 | 423 | 412 | 379 | 378 | 385 |
| C[C@@H](c1ncncc1F)[C@](O)(Cn1cncn1)c1ccc(F)cc1F | 462 | 448 | 446 | 464 | 436 | 450 |  |  |  |
| CC[C@]1(O)C[C@H]2CN(CCC3=C([NH]C4=C3C=CC=C4)[C@@](C2)(C(=O)OC)C5=CC6=C(C=C5OC)N(C=O)[C@H]7[C@](O)([C@H](OC(C)=O)[C@]8(CC)\C=C/C[N@@]9CC[C@]67[C@H]89)C(=O)OC)C1 | 272 | 239 | 264 | 185 | 180 | 224 |  |  |  |
| O=C/1\C=C(/OC(=C1)/C2=C3SC4=C(SC3=CC=C2)C=CC=C4)N5CCOCC5 |  |  |  |  |  |  | 417 | 409 | 411 |
